{"source": "patent US20240174679A1", "about": "“HETEROAROYL AMIDES AS LRRK2 INHIBITORS, PHARMACEUTICAL COMPOSITIONS, AND USES THEREOF” (MERCK SHARP & DOHME LLC, priority 2021, published 2024)"}
{"target": "GST tagged truncated human mutant G2019S LRRK2 (Homo sapiens (Human), UniProt Q5S007, G2019S)", "sequence (Q5S007 970-2527 G2019S)": "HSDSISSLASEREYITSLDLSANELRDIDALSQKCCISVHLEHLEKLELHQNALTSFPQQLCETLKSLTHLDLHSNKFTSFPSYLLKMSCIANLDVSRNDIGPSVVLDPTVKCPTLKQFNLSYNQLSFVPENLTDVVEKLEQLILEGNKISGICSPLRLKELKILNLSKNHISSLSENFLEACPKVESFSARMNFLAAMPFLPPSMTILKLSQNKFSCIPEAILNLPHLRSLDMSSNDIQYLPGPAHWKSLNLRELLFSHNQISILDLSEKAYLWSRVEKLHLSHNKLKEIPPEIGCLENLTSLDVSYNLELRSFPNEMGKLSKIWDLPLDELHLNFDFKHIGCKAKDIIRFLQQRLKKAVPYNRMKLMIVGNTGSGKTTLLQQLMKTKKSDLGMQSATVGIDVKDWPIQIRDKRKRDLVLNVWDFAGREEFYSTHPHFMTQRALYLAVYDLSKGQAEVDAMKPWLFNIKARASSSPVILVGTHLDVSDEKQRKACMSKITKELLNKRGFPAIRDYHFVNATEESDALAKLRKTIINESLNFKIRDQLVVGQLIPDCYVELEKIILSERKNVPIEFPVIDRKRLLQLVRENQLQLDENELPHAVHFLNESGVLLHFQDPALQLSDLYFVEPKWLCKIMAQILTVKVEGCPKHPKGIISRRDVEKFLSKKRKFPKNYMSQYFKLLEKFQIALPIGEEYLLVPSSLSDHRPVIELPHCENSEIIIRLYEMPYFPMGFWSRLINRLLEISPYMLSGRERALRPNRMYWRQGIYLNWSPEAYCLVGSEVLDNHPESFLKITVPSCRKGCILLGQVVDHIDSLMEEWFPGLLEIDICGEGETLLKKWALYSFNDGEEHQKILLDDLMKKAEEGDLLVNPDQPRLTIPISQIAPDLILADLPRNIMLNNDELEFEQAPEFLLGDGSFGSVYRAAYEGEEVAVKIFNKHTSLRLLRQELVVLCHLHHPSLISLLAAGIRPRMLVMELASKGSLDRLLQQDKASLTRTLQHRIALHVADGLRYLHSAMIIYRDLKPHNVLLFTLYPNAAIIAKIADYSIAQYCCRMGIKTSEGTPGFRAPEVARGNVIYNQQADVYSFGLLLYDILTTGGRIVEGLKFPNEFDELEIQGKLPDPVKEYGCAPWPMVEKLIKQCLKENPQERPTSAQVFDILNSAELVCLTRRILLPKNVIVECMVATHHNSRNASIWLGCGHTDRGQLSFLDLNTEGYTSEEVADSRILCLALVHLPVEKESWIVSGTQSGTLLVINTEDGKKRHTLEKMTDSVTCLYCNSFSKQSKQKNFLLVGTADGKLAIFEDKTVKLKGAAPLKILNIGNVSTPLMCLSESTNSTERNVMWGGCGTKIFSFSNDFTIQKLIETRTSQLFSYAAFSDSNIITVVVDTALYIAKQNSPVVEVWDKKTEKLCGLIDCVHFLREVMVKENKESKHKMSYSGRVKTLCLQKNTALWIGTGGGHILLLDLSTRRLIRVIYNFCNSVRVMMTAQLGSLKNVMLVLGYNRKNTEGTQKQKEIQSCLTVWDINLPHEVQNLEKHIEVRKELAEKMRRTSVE", "assay": "LRRK2 Km ATP LanthaScreen Assay", "assay_type": "biochemical", "settings": "134 μM ATP (Km ATP), LRRKtide substrate, negative log of mean IC50 (molar)", "description": "(§1) Unless otherwise noted, all reactions are magnetically stirred. Unless otherwise noted, when diethyl ether is used in the experiments described below, it is Fisher ACS certified material and is stabilized with BHT. Unless otherwise noted, “concentrated” and/or “solvent removed under reduced pressure” means evaporating the solvent from a solution or mixture using a rotary evaporator or vacuum pump. Unless otherwise noted, flash chromatography is carried out on a Teledyne Isco (Lincoln, NE), Analogix (Burlington, WI), or Biotage (Stockholm, SWE) automated chromatography system using a commercially available cartridge as the column. Columns may be purchased from Teledyne Isco, Analogix, Biotage, Varian (Palo Alto, CA), or Supelco (Bellefonte, PA) and are usually filled with silica gel as the stationary phase. Reversed phase preparative HPLC conditions, where used, can be found at the end of each experimental section. Aqueous solutions were concentrated on a Genevac (Ipswich, ENG) or by freeze-drying/lyophilization. Unless otherwise noted, all LRRK2 pIC50 data presented in tables refers to the LRRK2 G2019S Km ATP LanthaScreen™ assay (Life Technologies Corp., Carlsbad, CA) that is described in the Biological Assay section.\n(§2) Biological Assay: LRRK2 Km ATP LanthaScreen™ Assay\n(§3) Compound potency against LRRK2 kinase activity was determined using LanthaScreen™ technology from Life Technologies Corporation (Carlsbad, CA) using a GST20 tagged truncated human mutant G2019S LRRK2 in the presence of the fluorescein-labeled peptide substrate LRRKtide® (LRRK2 phosphorylated ezrin/radixin/moesin (ERM)), also from Life Technologies. The data presented for the Km ATP LanthaScreen™ Assay represents mean IC50 values based on several test results and may have reasonable deviations depending on the specific conditions and reagents used. Km is the Michaelis constant of an enzyme and is defined as the concentration of native substrate (ATP for a kinase) which permits the enzyme to achieve half Vmax (Vmax=rate of reaction when the enzyme is saturated with substrate). IC50 (half-maximal inhibitory concentration) represents the concentration of inhibitor required to inhibit LRRK2 kinase activity by 50%. Assays were performed in the presence of 134 μM ATP (Km ATP). Upon completion, the assay was stopped, and phosphorylated substrate detected with a terbium (Tb)-labeled anti-pERM antibody (cat. no. PV4898). The compound dose response was prepared by diluting a 10 mM stock of compound to a maximum concentration of 9.99 μM in 100% DMSO, followed by custom fold serial dilution in DMSO nine times. 20 nL of each dilution was spotted via a Labcyte Echo onto a 384-well black-sided plate (Corning 3575) followed by 15 μL of a 1.25 nM enzyme solution in 1× assay buffer (50 mM Tris pH 8.5, 10 mM MgCl2, 0.01% Brij-35, 1 mM EGTA, 2 mM dithiothreitol, 0.05 mM sodium orthovanadate). Following a 15-min incubation period at rt, the kinase reaction was started with the addition of 5 μL of 400 nM fluorescein-labeled LRRKtide® (LRRK2 phosphorylated ezrin/radixin/moesin (ERM)) peptide substrate and 134 μM ATP solution in 1× assay buffer. The reaction was allowed to progress at ambient temperature for 90 min. The reaction was then stopped by the addition of 20 μL of TR-FRET Dilution Buffer (Life Technologies, Carlsbad, CA) containing 2 nM Tb-labeled anti-phospho LRRKtide® (LRRK2 phosphorylated ezrin/radixin/moesin (ERM)) antibody and 10 mM EDTA (Life Technologies, Carlsbad, CA). After an incubation period of 1 h at rt, the plate was read on an EnVision® multimode plate reader (Perkin Elmer, Waltham, MA) with an excitation wavelength of 337 nm (Laser) and a reading emission at both 520 and 495 nm. Compound IC50 values were interpolated from nonlinear regression best-fits of the log of the final compound concentration, plotted as a function of the 520/495-nm emission ratio using activity base “Abase”). Abase uses a 4 parameter (4P) logistic fit based on the Levenberg-Marquardt algorithm. […]"}
{"smiles": "O=C(Nc1cnn(CC2CCC2)c1)c1cccc(-c2ccncc2)n1", "note": "[Example 9-16, N-[1-(cyclobutylmethyl)-1H-pyrazol-4-yl]-2,4′-bipyridine-6-carboxamide]", "LRRK2 pIC50": 5.04}
{"smiles": "Cn1cc(-c2cccc(C(=O)Nc3cnn(C4CCC4)c3)n2)cn1", "note": "[Example 9-1, N-(1-Cyclobutyl-1H-pyrazol-4-yl)-6-(1-methyl-1H-pyrazol-4-yl)picolinamide]", "LRRK2 pIC50": 7.27}
{"smiles": "Cc1nn(C2CCC2)cc1NC(=O)c1csc(-c2cn[nH]c2)n1", "note": "[Example 1-3, N-(1-Cyclobutyl-3-methyl-1H-pyrazol-4-yl)-2-(1H-pyrazol-4-yl)thiazole-4-carboxamide]", "LRRK2 pIC50": 7.83}
{"smiles": "O=C(Nc1cnn(C2CC2)c1)c1coc(-c2cn[nH]c2)n1", "note": "[Example 1-18, N-(1-cyclopropyl-1H-pyrazol-4-yl)-2-(1H-pyrazol-4-yl)-1,3-oxazole-4-carboxamide]", "LRRK2 pIC50": 6.75}
{"smiles": "Cc1n[nH]c(C)c1-c1cccc(C(=O)Nc2cnn(CC3CCC3)c2)n1", "note": "[Example 9-26, N-[1-(cyclobutylmethyl)-1H-pyrazol-4-yl]-6-(3,5-dimethyl-1H-pyrazol-4-yl)pyridine-2-carboxamide]", "LRRK2 pIC50": 6.09}
{"smiles": "CSc1nc(C(=O)Nc2cnn(C3CCC3)c2)cs1", "note": "[Example 4-5, N-(1-cyclobutyl-1H-pyrazol-4-yl)-2-(methylsulfanyl)-1,3-thiazole-4-carboxamide]", "LRRK2 pIC50": 5.82}
{"smiles": "COCCn1cc(NC(=O)c2csc(-c3cn[nH]c3)n2)c(C(F)F)n1", "note": "[Example 7-3, N-[3-(difluoromethyl)-1-(2-methoxyethyl)-1H-pyrazol-4-yl]-2-(1H-pyrazol-4-yl)-1,3-thiazole-4-carboxamide]", "LRRK2 pIC50": 7.27}
{"smiles": "COc1nn(Cc2nnc3n2CCCCC3)cc1NC(=O)c1csc(-c2cn[nH]c2)n1", "note": "[Example 1-28, N-[3-methoxy-1-(6,7,8,9-tetrahydro-5H-[1,2,4]triazolo[4,3-a]azepin-3-ylmethyl)-1H-pyrazol-4-yl]-2-(1H-pyrazol-4-yl)-1,3-thiazole-4-carboxamide]", "LRRK2 pIC50": 6.95}
{"smiles": "O=C(Nc1cnn(CC2CCC2)c1)c1cccc(-c2cccnc2F)n1", "note": "[Example 9-24, N-[1-(cyclobutylmethyl)-1H-pyrazol-4-yl]-2′-fluoro-2,3′-bipyridine-6-carboxamide]", "LRRK2 pIC50": 7.16}
{"smiles": "COc1nn(CC(F)(F)F)cc1NC(=O)c1csc(-c2cnn(S(C)(=O)=O)c2)n1", "note": "[Example 13-1, N-(3-Methoxy-1-(2,2,2-trifluoroethyl)-1H-pyrazol-4-yl)-2-(1-(methylsulfonyl)-1H-pyrazol-4-yl)thiazole-4-carboxamide]", "LRRK2 pIC50": 5.97}
{"smiles": "O=C(Nc1cn(CC2CCCO2)nc1C(F)F)c1csc(-c2cn[nH]c2)n1", "note": "(stereo not drawn) [Example 7-12, N-[3-(difluoromethyl)-1-(tetrahydrofuran-2-ylmethyl)-1H-pyrazol-4-yl]-2-(1H-pyrazol-4-yl)-1,3-thiazole-4-carboxamide]", "LRRK2 pIC50": 7.68}
{"smiles": "COCC1(Cn2cc(NC(=O)c3csc(-c4cn[nH]c4)n3)cn2)CCC1", "note": "[Example 1-29, N-(1-{[1-(methoxymethyl)cyclobutyl]methyl}-1H-pyrazol-4-yl)-2-(1H-pyrazol-4-yl)-1,3-thiazole-4-carboxamide]", "LRRK2 pIC50": 7.82}
{"smiles": "O=C(Nc1cnn(CC2CCC2)c1)c1csc(-c2cn[nH]c2)n1", "note": "[Example 7-1, N-(1-(Cyclobutylmethyl)-1H-pyrazol-4-yl)-2-(1H-pyrazol-4-yl)thiazole-4-carboxamide]", "LRRK2 pIC50": 7.76}
{"smiles": "O=C(Nc1cnn(CC2CCC2)c1)c1cccc(-c2cnn(Cc3ccncc3)c2)n1", "note": "[Example 9-6, N-[1-(cyclobutylmethyl)-1H-pyrazol-4-yl]-6-[1-(pyridin-4-ylmethyl)-1H-pyrazol-4-yl]pyridine-2-carboxamide]", "LRRK2 pIC50": 6.18}
{"smiles": "COc1nn(C2CCC2)cc1NC(=O)c1csc(-c2cn[nH]c2)n1", "note": "[Example 1-22, N-(1-cyclobutyl-3-methoxy-1H-pyrazol-4-yl)-2-(1H-pyrazol-4-yl)-1,3-thiazole-4-carboxamide]", "LRRK2 pIC50": 7.76}
{"smiles": "CC(C)Nc1nc(C(=O)Nc2cnn(C3CCC3)c2)cs1", "note": "[Example 4-3, N-(1-cyclobutyl-1H-pyrazol-4-yl)-2-[(1-methylethyl)amino]-1,3-thiazole-4-carboxamide]", "LRRK2 pIC50": 6.19}
{"smiles": "Cc1nn(C(C2CC2)C2CC2)cc1NC(=O)c1csc(-c2cn[nH]c2)n1", "note": "[Example 1-23, N-[1-(dicyclopropyl-methyl)-3-methyl-1H-pyrazol-4-yl]-2-(1H-pyrazol-4-yl)-1,3-thiazole-4-carboxamide]", "LRRK2 pIC50": 6.59}
{"smiles": "COc1nn(CC(F)(F)F)cc1NC(=O)c1csc(-c2cnn(C)c2)n1", "note": "[Example 12-6, N-[3-methoxy-1-(2,2,2-trifluoroethyl)-1H-pyrazol-4-yl]-2-(1-methyl-1H-pyrazol-4-yl)-1,3-thiazole-4-carboxamide]", "LRRK2 pIC50": 7.06}
{"smiles": "CC(C)Cn1cc(NC(=O)c2csc(-c3cn[nH]c3)n2)cn1", "note": "[Example 7-41, N-[1-(2-methylpropyl)-1H-pyrazol-4-yl]-2-(1H-pyrazol-4-yl)-1,3-thiazole-4-carboxamide]", "LRRK2 pIC50": 7.46}
{"smiles": "Cn1cc(-c2nn(C)cc2NC(=O)c2csc(-c3cn[nH]c3)n2)cn1", "note": "[Example 1-31, N-(1,1′-dimethyl-1H,1′H-3,4′-bipyrazol-4-yl)-2-(1H-pyrazol-4-yl)-1,3-thiazole-4-carboxamide]", "LRRK2 pIC50": 7.95}
{"smiles": "O=C(Nc1cnn(CC2(F)CCC2)c1)c1csc(-c2cn[nH]c2)n1", "note": "[Example 1-43, N-{1-[(1-fluorocyclobutyl)methyl]-1H-pyrazol-4-yl}-2-(1H-pyrazol-4-yl)-1,3-thiazole-4-carboxamide]", "LRRK2 pIC50": 7.64}
{"smiles": "CC(=O)Nc1nc(C(=O)Nc2cnn(C3CCC3)c2)cs1", "note": "[Example 4-12, 2-(acetylamino)-N-(1-cyclobutyl-1H-pyrazol-4-yl)-1,3-thiazole-4-carboxamide]", "LRRK2 pIC50": 6.18}
{"smiles": "CC1COc2c(-c3cccc(C(=O)Nc4cnn(CC5CCC5)c4)n3)cnn2C1", "note": "(stereo not drawn) [Example 9-7, N-[1-(cyclobutylmethyl)-1H-pyrazol-4-yl]-6-(6-methyl-6,7-dihydro-5H-pyrazolo[5,1-b][1,3]oxazin-3-yl)pyridine-2-carboxamide]", "LRRK2 pIC50": 6.87}
{"smiles": "O=C(Nc1cnn(Cc2ccc(F)cc2)c1)c1csc(-c2cn[nH]c2)n1", "note": "[Example 7-17, N-[1-(4-fluorobenzyl)-1H-pyrazol-4-yl]-2-(1H-pyrazol-4-yl)-1,3-thiazole-4-carboxamide]", "LRRK2 pIC50": 7.76}
{"smiles": "CCn1cc(NC(=O)c2csc(-c3cn[nH]c3)n2)c(-c2nnc3n2CCCC3)n1", "note": "[Example 1-12, N-[1-ethyl-3-(5,6,7,8-tetrahydro[1,2,4]triazolo[4,3-a]pyridin-3-yl)-1H-pyrazol-4-yl]-2-(1H-pyrazol-4-yl)-1,3-thiazole-4-carboxamide]", "LRRK2 pIC50": 7.53}
{"smiles": "COCCn1cc(NC(=O)c2csc(-c3cn[nH]c3)n2)c(OC)n1", "note": "[Example 7-21, N-[3-methoxy-1-(2-methoxyethyl)-1H-pyrazol-4-yl]-2-(1H-pyrazol-4-yl)-1,3-thiazole-4-carboxamide]", "LRRK2 pIC50": 6.57}
{"target": "GST tagged truncated human mutant G2019S LRRK2 (Homo sapiens (Human), UniProt Q5S007, G2019S)", "assay": "LRRK2 Km ATP LanthaScreen Assay", "assay_type": "biochemical", "settings": "134 μM ATP (Km ATP), LRRKtide substrate, negative log of mean IC50 (molar), read-out: LRRK2 pIC50 (converted)", "description": "as §1, §2, §3", "units": {"IC50": "nM"}}
{"smiles": "CC(C1CC1)n1cc(NC(=O)c2csc(-c3cn[nH]c3)n2)cn1", "note": "(single isomer, unassigned) [Example 2-2, (S)- or (R)—N-(1-(1-cyclopropylethyl)-1H-pyrazol-4-yl)-2-(1H-pyrazol-4-yl)thiazole-4-carboxamide]", "IC50": 38}
